Measurements taken from patent publication US10294229B2, “Heteroaryl substituted aminopyridine compounds” (BRISTOL-MYERS SQUIBB COMPANY, priority 2015, dated 2019).

Key:
IRAK4 = IRAK4 (Homo sapiens (Human), UniProt Q9NWZ3); assay: IRAK4 Inhibition Assay; assay type: biochemical; settings: ATP 500 μM; IRAK4 0.6 nM
Method in brief: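 Mobility-shift kinase assay: 0.6 nM IRAK4, 500 μM ATP, 1.5 μM fluorescent peptide, 60 min, room temperature. Percent inhibition was normalised between enzyme-free and DMSO-only wells.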

[1] = test system: Human whole blood stimulated with a TLR2 agonist (lipoteichoic acid), IL-6 levels; assay: IRAK4 Whole Blood Assay; assay type: cell-based; settings: lipoteichoic acid 10 μg/mL
Method in brief: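 IL-6 was quantified by cytometric bead assay in supernatants of human blood (ACD-A) stimulated for 5 h with lipoteichoic acid at 10 μg/mL final. Compound exposure preceded stimulation for 60 min at 37 °C, 5% CO2.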

[2] = Caco-2 Permeability Assay; assay type: in vitro ADME; settings: human, Caco-2, test compound 3 μM
Method in brief: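 Bidirectional permeability measured over 2 h at 37° C, compound dosed at 3 μM in the donor compartment (apical for absorptive, basolateral for secretive) with plain buffer as receiver.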

Chain of IRAK4 (Q9NWZ3 whole entry, species assumed): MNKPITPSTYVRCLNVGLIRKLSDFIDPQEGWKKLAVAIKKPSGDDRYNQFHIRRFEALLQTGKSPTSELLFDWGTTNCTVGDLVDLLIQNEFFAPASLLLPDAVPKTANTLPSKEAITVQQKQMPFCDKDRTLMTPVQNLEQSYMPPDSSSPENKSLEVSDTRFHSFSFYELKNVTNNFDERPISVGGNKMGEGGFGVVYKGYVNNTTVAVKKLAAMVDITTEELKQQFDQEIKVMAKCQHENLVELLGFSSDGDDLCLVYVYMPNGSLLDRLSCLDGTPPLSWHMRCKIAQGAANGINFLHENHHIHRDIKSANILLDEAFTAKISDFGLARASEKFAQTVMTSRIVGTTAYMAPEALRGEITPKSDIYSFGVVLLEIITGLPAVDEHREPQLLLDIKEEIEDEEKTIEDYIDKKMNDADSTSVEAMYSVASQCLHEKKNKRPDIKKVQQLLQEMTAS

Row | SMILES | IC50 (IRAK4) [nM] | EC50 ([1]; Homo sapiens) [nM] | Papp at 2 h, 3 µM [2] [×10⁻⁶ cm/s] | EC50 [1] [nM]
1 | CC(=O)N1CC(n2cc(-c3cnc(-n4ncc5cc(C#N)cnc54)cc3NC(C)C)nn2)C1 [Example 154, 1-(5-(1-(1-acetylazetidin-3-yl)-1H-1,2,3-triazol-4-yl)-4-(isopropylamino)pyridin-2-yl)-1H-pyrazolo[3,4-b]pyridine-5-carbonitrile] | 4 | 150 | < 1.5 | 
2 | CC(C)Nc1cc(-n2ncc3cc(C#N)cnc32)ncc1-c1cn(CC(C)(C)O)nn1 [Example 63, 1-(5-(1-(2-hydroxy-2-methylpropyl)-1H-1,2,3-triazol-4-yl)-4-(isopropylamino)pyridin-2-yl)-1H-pyrazolo[3,4-b]pyridine-5-carbonitrile] | 14 | 900 | 7.8 | 
3 | CC(C)Nc1cc(-n2ncc3cc(C#N)cnc32)ncc1-c1cn(CCC(F)(F)F)nn1 [Example 41, 1-(4-(isopropylamino)-5-(1-(3,3,3-trifluoropropyl)-1H-1,2,3-triazol-4-yl)pyridin-2-yl)-1H-pyrazolo[3,4-b]pyridine-5-carbonitrile] | 4 | 320 | 27.8 | 
4 | CC(C)Nc1cc(-n2ncc3cc(C#N)cnc32)ncc1-c1cn(CCC(C)(C)O)cn1 [Example 240, 1-(5-(1-(3-hydroxy-3-methylbutyl)-1H-imidazol-4-yl)-4-(isopropylamino)pyridin-2-yl)-1H-pyrazolo[3,4-b]pyridine-5-carbonitrile] | 3 | 740 | 5.7 | 
5 | CC(C)Nc1cc(-n2ncc3cc(C#N)c(N)nc32)ncc1-c1cn(CC(C)(C)O)nn1 [Example 97, 6-amino-1-(5-(1-(2-hydroxy-2-methylpropyl)-1H-1,2,3-triazol-4-yl)-4-(isopropylamino)pyridin-2-yl)-1H-pyrazolo[3,4-b]pyridine-5-carbonitrile] | 8 | 1440 | < 1.5 | 
6 | CC(C)Nc1cc(-n2ncc3cc(C#N)cnc32)ncc1-c1cn([C@@H]2CCN(S(C)(=O)=O)C[C@H]2F)nn1 (single isomer, unassigned) [Example 210, 1-(5-(1-((trans)-3-fluoro-1-(methylsulfonyl)piperidin-4-yl)-1H-1,2,3-triazol-4-yl)-4-(isopropylamino)pyridin-2-yl)-1H-pyrazolo[3,4-b]pyridine-5-carbonitrile] | 2 | 510 | 4.3 | 
7 | CC(C)(F)CCc1cn(-c2cnc(-n3ncc4cc(C#N)cnc43)cc2NC2COC2)nn1 [Example 363, 1-(5-(4-(3-fluoro-3-methylbutyl)-1H-1,2,3-triazol-1-yl)-4-(oxetan-3-ylamino)pyridin-2-yl)-1H-pyrazolo[3,4-b]pyridine-5-carbonitrile] | 6 | 330 | 15.6 | 
8 | CC(C)Nc1cc(-n2ncc3cc(C#N)cnc32)ncc1-c1cn([C@H](C)[C@H](C)O)nn1 (single isomer, unassigned) [Example 88] | 5 | 1290 | 7.1 | 
9 | CC(F)Cc1cn(-c2cnc(-n3ncc4cc(C#N)cnc43)cc2NC2CC2)nn1 (stereo not drawn) [Example 354, 1-(4-(cyclopropylamino)-5-(4-(2-fluoropropyl)-1H-1,2,3-triazol-1-yl)pyridin-2-yl)-1H-pyrazolo[3,4-b]pyridine-5-carbonitrile] | 14 |  | 36 | 150
10 | CC(C)(O)CCc1cn(-c2cnc(-n3ncc4cc(C#N)cnc43)cc2NC2COCC2F)nn1 (stereo not drawn) [Example 379, 1-(4-((4-fluorotetrahydrofuran-3-yl)amino)-5-(4-(3-hydroxy-3-methylbutyl)-1H-1,2,3-triazol-1-yl)pyridin-2-yl)-1H-pyrazolo [3,4-b]pyridine-5-carbonitrile] | 5 | 140 | < 1.5 | 
11 | CC(C)Nc1cc(-n2ncc3cc(C#N)cnc32)ncc1-c1cn(C2CCNCC2)nn1 [Example 195, 1-(4-(isopropylamino)-5-(1-(piperidin-4-yl)-1H-1,2,3-triazol-4-yl)pyridin-2-yl)-1H-pyrazolo [3,4-b]pyridine-5-carbonitrile] | 2 | 450 | < 1.5 | 
12 | N#Cc1cnc2c(cnn2-c2cc(NC3CC3)c(-c3cn(CCN4CCOCC4)nn3)cn2)c1 [Example 13, 1-(4-(cyclopropylamino)-5-(1-(2-morpholinoethyl)-1H-1,2,3-triazol-4-yl)pyridin-2-yl)-1H-pyrazolo[3,4-b]pyridine-5-carbonitrile] | 3 | 270 | 22.9 | 
13 | CC(C)Nc1cc(-n2ncc3cc(C#N)cnc32)ncc1-c1cc([C@H]2C[C@@H](O)CCN2)no1 [Example 425, 1-(5-(3-((2R,4S)-4-hydroxypiperidin-2-yl)isoxazol-5-yl)-4-(isopropylamino)pyridin-2-yl)-1H-pyrazolo[3,4-b]pyridine-5-carbonitrile] | 9 | 140 | < 1.5 | 
14 | CC(=O)N1CC[C@@H](n2cc(-c3cnc(-n4ncc5cc(C#N)cnc54)cc3NC(C)C)nn2)[C@H](O)C1 (single isomer, unassigned) [Example 197, 1-(5-(1-((trans)-1-acetyl-3-hydroxypiperidin-4-yl)-1H-1,2,3-triazol-4-yl)-4-(isopropylamino)pyridin-2-yl)-1H-pyrazolo[3,4-b]pyridine-5-carbonitrile] | 3 | 170 | < 1.5 | 
15 | CC(C)Nc1cc(-n2ncc3cc(C#N)cnc32)ncc1-c1cc(C2CCNCC2)no1 [Example 403, 1-(4-(isopropylamino)-5-(3-(piperidin-4-yl)isoxazol-5-yl)pyridin-2-yl)-1H-pyrazolo[3,4-b]pyridine-5-carbonitrile] | 4 | 230 | < 1.5 | 
16 | CCCn1cc(-c2cnc(-n3ncc4cc(Cl)cnc43)cc2NC(C)C)nn1 [Example 218, 2-(5-chloro-1H-pyrazolo[3,4-b]pyridin-1-yl)-N-isopropyl-5-(1-propyl-1H-1,2,3-triazol-4-yl)pyridin-4-amine] | 9 | 2090 | 12.5 | 

Continued by falling IC50 (IRAK4), values first:

Row | IC50 (IRAK4) [nM] | EC50 ([1]; Homo sapiens) [nM] | Papp at 2 h, 3 µM [2] [×10⁻⁶ cm/s] | EC50 [1] [nM] | SMILES
17 | 13 | 170 | 41 |  | N#Cc1cnc2c(cnn2-c2cc(NC3CC3)c(-n3cc(C4CCOCC4)nn3)cn2)c1 [Example 348, 1-(4-(cyclopropylamino)-5-(4-(tetrahydro-2H-pyran-4-yl)-1H-1,2,3-triazol-1-yl)pyridin-2-yl)-1H-pyrazolo[3,4-b]pyridine-5-carbonitrile]
18 | 8 | 270 | 37.1 |  | CC(C)Nc1cc(-n2ncc3cc(C#N)cnc32)ncc1-n1cc(CCC(C)(C)O)cn1 [Example 390, 1-(5-(4-(3-hydroxy-3-methylbutyl)-1H-pyrazol-1-yl)-4-(isopropylamino)pyridin-2-yl)-1H-pyrazolo[3,4-b]pyridine-5-carbonitrile]
19 | 4 | 330 | 3.6 |  | CC(C)(O)CCc1cn(-c2cnc(-n3ncc4cc(C#N)cnc43)cc2N[C@H]2CC[C@@H](F)C2)nn1 [Example 372, 1-(4-(((1S,3R)-3-fluorocyclopentyl)amino)-5-(4-(3-hydroxy-3-methylbutyl)-1H-1,2,3-triazol-1-yl)pyridin-2-yl)-1H-pyrazolo[3,4-b]pyridine-5-carbonitrile]
20 | 4 | 400 | 13.9 |  | CC(C)Nc1cc(-n2ncc3cc(C#N)cnc32)ncc1-c1cc(C2CCCCN2)no1 [Example 412, (S)-1-(4-(isopropylamino)-5-(3-(piperidin-2-yl)isoxazol-5-yl)pyridin-2-yl)-1H-pyrazolo[3,4-b]pyridine-5-carbonitrile]
21 | 4 | 300 | 27.7 |  | CC(C)(F)CCc1cn(-c2cnc(-n3ncc4cc(C#N)cnc43)cc2N[C@@H]2CCOC2)nn1 [Example 373, (R)-1-(5-(4-(3-fluoro-3-methylbutyl)-1H-1,2,3-triazol-1-yl)-4-((tetrahydrofuran-3-yl)amino)pyridin-2-yl)-1H-pyrazolo[3,4-b]pyridine-5-carbonitrile]
22 | 4 | 660 | 48.1 |  | CCCn1cc(-c2cnc(-n3ncc4cc(C#N)cnc43)cc2NC2CC2)nn1 [Example 34, 1-(4-(cyclopropylamino)-5-(1-propyl-1H-1,2,3-triazol-4-yl)pyridin-2-yl)-1H-pyrazolo[3,4-b]pyridine-5-carbonitrile]
23 | 3 | 260 | 18.3 |  | CC(=O)N(C)CCCc1cc(-c2cnc(-n3ncc4cc(C#N)cnc43)cc2NC(C)C)on1 [Example 415, N-(3-(5-(6-(5-cyano-1H-pyrazolo[3,4-b]pyridin-1-yl)-4-(isopropylamino)pyridin-3-yl)isoxazol-3-yl)propyl)-N-methylacetamide]
24 | 3 | 440 | < 1.5 |  | CC(C)Nc1cc(-n2ncc3cc(C#N)cnc32)ncc1-c1cn([C@H]2CC[C@H](N)CC2)nn1 [Example 392, 1-(5-(1-((1r,4r)-4-aminocyclohexyl)-1H-1,2,3-triazol-4-yl)-4-(isopropylamino)pyridin-2-yl)-1H-pyrazolo[3,4-b]pyridine-5-carbonitrile]
